Data on 15 molecules can be found in patent US5369112A, “Method of treating cataracts caused by active oxygen” (Mitsubishi Gas Chemical Company, Inc., priority 1991, dated 1994).

Series [1] is described as follows: Superoxide scavenging activity (hypoxanthine-xanthine oxidase, DMPO spin trapping, ESR). The following applies: pH 7.3, read-out: O2^- scavenging activity IC50. The class given is biochemical. From the text: Activity of PQQ esters to scavenge superoxide (O2^-) produced in the system of hypoxanthinexanthine oxidase was examined by spin trapping method [using 5,5-dimethyl-l-pyrroline-N-oxide (hereinafter referred to as "DMPO") as a spin trapping agent] where electron spin resonance (hereinafter referred to as "ESR") was used.
Hypoxanthine+2O2 →2O2^- +uric acid (xanthine oxidase)
The following reagents were successively put in a test tube and stirred after addition of the hypoxanthine 7 to initiate the reaction and the reaction mixture was transferred to a quartz cell used for measurement of ESR.
Superoxide scavenging activity of OPQ and esters thereof was examined in the same manner as in Example 1.

Series [2] can be described thus: Hydroxy radical scavenging activity (H2O2-(Fe^2+-DTPA), DMPO spin trapping, ESR). The class given is biochemical. The following applies: pH 7.3, read-out: .OH scavenging activity IC50. From the text: Activity of PQQ esters to scavenge hydroxy radical (·OH) produced in the system of H2 O2 --(Fe^2+ -DTPA) was examined by spin trapping method [using 5,5-dimethyl-1-pyrroline-N-oxide (hereinafter referred to as "DMPO") as a spin trapping agent] where electron spin resonance (hereinafter referred to as "ESR") was used. DTPA means diethylenetriamine-pentaacetic acid.
H2 O2 +Fe^2 -DTPA complex→·OH+OH^-
The following reagents were successively put in a test tube and stirred after addition of H2 O2 6 to initiate the reaction and the reaction mixture was transferred to a quartz cell used for measurement of ESR.
Hydroxy radical scavenging activity of OPQ and esters thereof was examined in the same manner as in Example 3.

For series [3], the system named is mice. The following applies: mouse, in vivo, ip. The procedure: One group consisted of 8 mice. For administration, PQQ·2Na and OPQ and esters thereof were dissolved in physiological saline and PQQ trimethyl ester and PQQ triallyl ester were suspended in 1% Tween 80-containing physiological saline, respectively.
PQQ·2Na, PQQ trimethyl ester, PQQ triallyl ester and OPQ and esters thereof were intraperitoneally administered to mice and they were bred in the same manner as in the above acute toxicity test. Urine of the mice was taken every day and glucose concentration was measured using clinical examination reagent (trademark: […] 2 manufactured by Miles.Sankyo Co.).

In series [4] the test system is mice. Briefly: Kidney Toxicity Determined by Blood Examination (1). Conditions: mouse serum. Format: in vivo. As for the experimental part:
After lapse of one day from the administration, the mice were fasted (with feeding only water) and then after 18 hours, blood was collected and serum was obtained therefrom. Glucose, urea nitrogen and creatinine in the serum were examined by clinical examination reagent (trademark: FUJI DRYCHEMSLIDE manufactured by Fuji Photo Film Co., Ltd.).

For series [5], the system named is Hydrocortisone-Induced Cataract of Hen's Eggs. The experiment in a line: Effect on hydrocortisone-induced cataract of hen's eggs. The class given is in vivo, white leghorn (hen's eggs). Conditions: 1 μmole at 3, 10 and 20 h after hydrocortisone; lens at 48 h. As for the experimental part:
Fertilized eggs of white leghorn were incubated in an incubator at a temperature of 37° C. and 70% in humidity. The day on which the incubation was started was taken to be one day old. […] eggs of 15 day old were prepared and divided into 7 groups, each of which included 5 eggs (A-G). A small hole was bored through the eggshell above air chamber of the eggs of groups B-G and 0.25 μmole (as 0.2 ml solution) of hydrocortisone sodium succinate was administered into the air chamber through the hole and then, the hole was sealed with a cellophane tape. To The eggs of groups C-G was administered 1 μmole of following compounds after 3, 10 and 20 hours from administration of hydrocortisone sodium succinate. That is, 0.2 ml of a solution of PQQ·2Na in distilled water was administered to the eggs of group C, 0.2 ml of a suspension of PQQ trimethyl ester in 1% Tween 80 solution was administered to the eggs of group D, 0.2 ml of a suspension of triallyl ester in 1% Tween 80 solution was administered to the eggs of group E, 0.2 ml of a solution of OPQ in 10 mM NaCO3 solution was administered to the eggs of group F, and 0.2 ml of a solution of methyl OPQ in 10 mM NaCO3 solution was administered to the eggs of group G.
Crystal lens was taken out after 48 hours from administration of hydrocortisone sodium succinate and degree of cataract was judged by the criteria according to the Nishigori et al method (Nishigori et al, "Investigative Ophthalmology & Visual Science", Vol. 25, page 1051, 1984).
5 The whole nucleus was hazed in white.

The conditions of series [6]: not told.
Method: Permeability of various compounds through capsule of crystal bovine lens was examined in accordance with the method mentioned in "Crystal Lens and Biochemical Mechanism thereof" (pages 436-440) edited by Shuzo Iwata (Medical Aoi Publisher). Each compound dissolved in 10 mM HEPES buffer (containing 1% DMSO in the case of PQQ triesters) was put in an apparatus for measurement of membrane permeation constant and left to stand for 16 hours at 35° C. and then amount of the compound which migrated was measured by ultraviolet absorption (243 nm for PQQ·2Na and 255 nm for PQQ esters) to obtain membrane permeation constant.

Read-outs that look alike come from different tables or passages of the source.

The IC50 is the concentration needed to halve the response being measured.

For `CC(C)c1nc2c3nc(C(=O)O)cc(C(=O)O)c3c3[nH]c(C(=O)O)cc3c2o1` [1-Methylethyl OPQ, 1-methylethyl OPQ (R=CH(CH3)2)], the IC50 in series [1] (Example 2, Table 7) is 3.14 µM; in series [2] (Example 4, Table 9), 200 µM.
With `CCC(C)c1nc2c3nc(C(=O)O)cc(C(=O)O)c3c3[nH]c(C(=O)O)cc3c2o1` (stereo not drawn) [1-Methylpropyl OPQ, 1-methylpropyl OPQ (R=CH(CH3)CH2 CH3)], the glucose in urine result in series [3] (20 mg/kg), in series [3] (40 mg/kg), in series [3] (80 mg/kg), in series [3] (160 mg/kg) and in series [3] (200 mg/kg) was “-” in each case. Also, the Creatinine in series [4] (40 mg/kg) stood at 0.80 ± 0.08 mg/dL; in series [4] (80 mg/kg), 0.78 ± 0.04 mg/dL; in series [4] (160 mg/kg), 0.78 ± 0.04 mg/dL; in series [4] (200 mg/kg), 0.83 ± 0.17 mg/dL. Moreover, the Glucose was 87 ± 20 mg/dL in series [4] (40 mg/kg), 104 ± 19 mg/dL in series [4] (80 mg/kg), 87 ± 22 mg/dL in series [4] (160 mg/kg) and 66 ± 11 mg/dL in series [4] (200 mg/kg). Moreover, the Urea nitrogen in series [4] (40 mg/kg) was 26 ± 1 mg/dL; in series [4] (80 mg/kg), 22 ± 3 mg/dL; in series [4] (160 mg/kg), 27 ± 4 mg/dL; in series [4] (200 mg/kg), 27 ± 6 mg/dL. Moreover, the IC50 is 3.53 µM in series [1] (Example 2, Table 7) and 252 µM in series [2] (Example 4, Table 9).
With `NC(=O)CCc1nc2c3nc(C(=O)O)cc(C(=O)O)c3c3[nH]c(C(=O)O)cc3c2o1` [2-Carbamoylethyl OPQ, 2-carbamoylethyl OPQ (R=CH2 CH2 CONH2)], the IC50 in series [1] (Example 2, Table 7) turned out to be 3.2 µM; in series [2] (Example 4, Table 9), 194 µM.
Consider `O=C(O)CCc1nc2c3nc(C(=O)O)cc(C(=O)O)c3c3[nH]c(C(=O)O)cc3c2o1` [2-Carboxyethyl OPQ, 2-carboxyethyl OPQ (R=CH2 CH2 CO2 H)], for which the IC50 in series [1] (Example 2, Table 7) amounted to 2.96 µM; in series [2] (Example 4, Table 9), 110 µM.
`CC(C)Cc1nc2c3nc(C(=O)O)cc(C(=O)O)c3c3[nH]c(C(=O)O)cc3c2o1` [2-Methylpropyl OPQ, 2-methylpropyl OPQ (R=CH2 CH(CH3)2)]: the IC50 was found to be 4.88 µM in series [1] (Example 2, Table 7) and 421 µM in series [2] (Example 4, Table 9).
For `CSCCc1nc2c3nc(C(=O)O)cc(C(=O)O)c3c3[nH]c(C(=O)O)cc3c2o1` [2-Methylthioethyl OPQ, 2-methylthioethyl OPQ (R= CH2 CH2 SCH3)], the glucose in urine entry in series [3] (20 mg/kg), in series [3] (40 mg/kg), in series [3] (80 mg/kg), in series [3] (160 mg/kg) and in series [3] (200 mg/kg) was “-” throughout. Also, the Creatinine in series [4] (40 mg/kg) came to 0.76 ± 0.05 mg/dL; in series [4] (80 mg/kg), 0.68 ± 0.08 mg/dL; in series [4] (160 mg/kg), 0.64 ± 0.05 mg/dL; in series [4] (200 mg/kg), 0.73 ± 0.06 mg/dL. Besides, the Glucose in series [4] (40 mg/kg) was found to be 96 ± 26 mg/dL; in series [4] (80 mg/kg), 88 ± 29 mg/dL; in series [4] (160 mg/kg), 97 ± 22 mg/dL; in series [4] (200 mg/kg), 72 ± 16 mg/dL. Besides, the Urea nitrogen worked out at 26 ± 4 mg/dL in series [4] (40 mg/kg), 26 ± 5 mg/dL in series [4] (80 mg/kg), 26 ± 3 mg/dL in series [4] (160 mg/kg) and 26 ± 2 mg/dL in series [4] (200 mg/kg). The IC50 in series [1] (Example 2, Table 7) amounted to 3.94 µM; in series [2] (Example 4, Table 9), 200 µM.
On to `O=C(O)c1cc(C(=O)O)c2c(n1)c1nc(Cc3ccc(O)cc3)oc1c1cc(C(=O)O)[nH]c12` [4-Hydroxyphenylmethyl OPQ, 4-hydroxyphenylmethyl OPQ], for which the IC50 in series [1] (Example 2, Table 7) was determined as 4.12 µM; in series [2] (Example 4, Table 9) it was 314 µM.
With `O=C(O)c1cc(C(=O)O)c2c(n1)c1nc(Cc3ccccc3)oc1c1cc(C(=O)O)[nH]c12` [Benzyl OPQ, benzyl OPQ], the glucose in urine entry in series [3] (20 mg/kg), in series [3] (40 mg/kg), in series [3] (80 mg/kg), in series [3] (160 mg/kg) and in series [3] (200 mg/kg) was “-” in each case. Further, the Creatinine in series [4] (40 mg/kg) is 0.68 ± 0.05 mg/dL; in series [4] (80 mg/kg) it was 0.68 ± 0.04 mg/dL; in series [4] (160 mg/kg), 0.68 ± 0.08 mg/dL; in series [4] (200 mg/kg), 0.73 ± 0.05 mg/dL. The Glucose in series [4] (40 mg/kg) was 90 ± 24 mg/dL; in series [4] (80 mg/kg), 87 ± 17 mg/dL; in series [4] (160 mg/kg), 87 ± 21 mg/dL; in series [4] (200 mg/kg), 84 ± 18 mg/dL. Further, the Urea nitrogen was 23 ± 3 mg/dL in series [4] (40 mg/kg), 23 ± 2 mg/dL in series [4] (80 mg/kg), 26 ± 3 mg/dL in series [4] (160 mg/kg) and 25 ± 3 mg/dL in series [4] (200 mg/kg). Besides, the IC50 is 3.01 µM in series [1] (Example 2, Table 7) and 211 µM in series [2] (Example 4, Table 9).
Take `O=C(O)c1cc(C(=O)O)c2c(n1)c1nc(CO)oc1c1cc(C(=O)O)[nH]c12` [Hydroxymethyl OPQ, hydroxymethyl OPQ (R=CH2 OH)]: the IC50 in series [1] (Example 2, Table 7) was 3.52 µM; in series [2] (Example 4, Table 9), 305 µM.
For the molecule `Cc1nc2c3nc(C(=O)O)cc(C(=O)O)c3c3[nH]c(C(=O)O)cc3c2o1` [Methyl OPQ, methyl OPQ (R=CH3)], the IC50 in series [1] (Example 2, Table 7) was 1.64 µM. For the same molecule, the IC50 in series [2] (Example 4, Table 9) is 153 µM. In addition, in series [5], the “Judgement 1 (No haze was seen in crystal lens), eggs” value is reported as 1/5; the “Judgement 3 (Clear ring of white haze was seen in crystal lens), eggs” value is on record as 2/5; the “Judgement 4 ~ 5 (white haze of pinhole size in nucleus ~ whole nucleus hazed in white), eggs” value is 2/5.
Turning to `C=CCOC(=O)c1cc(C(=O)OCC=C)c2c(n1)c1ncoc1c1cc(C(=O)OCC=C)[nH]c12` [OPQ triallyl ester], the IC50 in series [1] (Example 2, Table 7) was 2.39 µM.
Turning to `O=C(OCc1ccccc1)c1cc(C(=O)OCc2ccccc2)c2c(n1)C(=O)C(=O)c1cc(C(=O)OCc3ccccc3)[nH]c1-2` [PQQ tribenzyl ester], the IC50 in series [1] (Example 1, Table 6) was found to be 0.0769 µM; in series [2] (Example 3, Table 8) it was 31 µM.
Take `CCOC(=O)c1cc(C(=O)OCC)c2c(n1)C(=O)C(=O)c1cc(C(=O)OCC)[nH]c1-2` [PQQ triethyl ester]: the Membrane permeation constant in series [6] (bovine, 960 min) was 1.22 ± 0.37 10 ^-7 cm^2 · sec^-1. Further, the “membrane permeation constant relative to that of PQQ.2Na” value in series [6] is listed as “about twice”.
Regarding PQQ dimethyl ester, the IC50 in series [1] (Example 1, Table 6) is 0.0106 µM.
On to PQQ monomethyl ester, for which the IC50 in series [1] (Example 1, Table 6) was 0.0609 µM.
